Like-named read-outs stand apart in the source and are kept apart here.
Legend:
[1] = molecular target: T1, FXR (Homo sapiens, UniProt Q96RI1); assay: FXR TR-FRET binding assay (DY246 fluorescent probe); details: for inhibition at 0.493 µM: at 493 nM; for IC50: mean ± SE; for inhibition at 0.164 µM: at 164 nM
T1 sequence (Q96RI1 262-486 limits assumed): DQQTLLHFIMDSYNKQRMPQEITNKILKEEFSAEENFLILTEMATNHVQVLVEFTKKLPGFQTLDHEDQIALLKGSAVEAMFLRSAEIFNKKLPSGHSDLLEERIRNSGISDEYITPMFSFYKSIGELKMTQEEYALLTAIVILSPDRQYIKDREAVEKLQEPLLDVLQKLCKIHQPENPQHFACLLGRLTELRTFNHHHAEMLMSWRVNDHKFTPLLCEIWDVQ
Protocol: The FXR TR-FRET binding assay was performed as previously described^23 with modifications. […] The plate was spun down after a brief shake and incubated at room temperature for 20 min. The TR-FRET emission signals at 520 nm and 490 nm for each well was then collected using a PHERAstar plate reader (BMG LABTECH, Cary, N.C.) with an excitation wavelength of 337 nm, 100-μs delay time, and 200-μs integration time. The 520 nm/490 nm ratio from each well was then calculated. […] The % inhibition of tested chemicals at given concentration was calculated based on negative and positive controls using equation 1.

[2] = tested on: GeneBLAzer FXR-UAS-bla HEK 293T cells; details: human, 16 h
Protocol: (§1) To examine if certain chemical antagonistic effect was caused by cytotoxicity, the same GeneBLAzer FXR cells were used to perform cytotoxicity assay. This assay was set up like the FXR agonistic assay, with the exception of signal reading. Instead of detecting the reporter activities, CellTiter-Glo® assay was used to detect cell viability. DMSO with cells or without cells group were served as negative (0% Inhibition) or positive (100% Inhibition), respectively.
(§2) Cytotoxicity assays were performed side-by-side with the FXR agonistic assay using GeneBLAzer FXR-UAS-bla HEK 293T cells with CellTiter-Glo® Luminescent Cell Viability Assay reagent (Promega). Briefly, cells were maintained in DMEM supplemented with 10% dialyzed FBS, 0.1 mM non-essential amino acids, 25 mM HEPES, 100 μg/ml of hygromycin B, 100 μg/ml of zeocin, 100 units/ml penicillin and 100 μg/ml streptomycin in regular tissue culture flasks. […] As a positive control, the wells in column 24 of each plate were filled with 30 μL assay medium along with 0.5% DMSO. The final DMSO concentration was 0.5% in each assay well. After a 16 h incubation in a cell culture incubator at 37° C., the cell plates were cooled at room temperature for 20 min and then CellTiter-Glo® reagent 20 μl/well was added followed by an incubation for 20 min in the dark to allow the development of optimal luminescence signal. The luminescence signal from each well in plates was collected with an Envision plate reader equipped with Ultra-sensitive Luminescence detector. The DMSO group and no cell group served as negative (0% activation) and positive (100% activation) controls, respectively. The % inhibition was calculated using equation 4 below.

[3] = molecular target: T1, FXR; assay: GeneBLAzer FXR cell-based antagonistic assay (in presence of 400 nM GW4064); parameters: the Gal4 DBD was fused to the LBD of FXR in this assay; host or cells: GeneBLAzer FXR-UAS-bla HEK 293T cells; details: for inhibition at 40 µM / inhibition at 20 µM: read-out: GB FXR Cell Anta. % Inh.; for IC50: with 400 nM GW4064, read-out: GB FXR Cell Anta. IC50
Protocol: A GeneBLAzer FXR cell-based assay was used to investigate the cellular activities of the 1,3,4-trisubstituted-pyrazol-4-carboxamide analogs. The assay detects the levels of a […] reporter controlled by a promoter containing the binding site of the DNA binding domain (DBD) of the GAL4 transcription factor; the Gal4 DBD was fused to the LBD of FXR in this assay.^35
FXR transactivation assays were performed using GeneBLAzer FXR-UAS-bla HEK 293T cells (Invitrogen). Cells were maintained according to the manufacturer's instructions. […] Plates were then incubated in dark for 90 min at room temperature before measuring the fluorescent emissions at 460 nm and 535 nm (using excitation at 400 nm) with an Envision plate reader with bottom read capacity. After background signal subtraction for individual emission channels, emission signals at 460 and 535 nm from each well were used to determine the ratio of 460 nm/535 nm. […] The % activation was calculated using equation 2.
The % inhibition was calculated using equation 3.

[4] = tested on: GeneBLAzer FXR-UAS-bla HEK 293T cells; assay: Cytotoxicity assay in GeneBLAzer FXR cells (CellTiter-Glo); details: class symbol NT
Protocol: as §1, §2

[5] = read-out: FXR TR-FRET Binding % Inh.

Row | SMILES | IC50 [1] | GB FXR Cell Cyto % Inh. ([2]; 40 μM) | inhibition at 40 µM [3] | IC50 [3] | further results
1 | Cc1ccc(-c2nn(-c3ccc(F)cc3)cc2C(=O)Nc2ccc(C)c(S(=O)(=O)N3CCOCC3)c2)cc1 [Compound 4a, 1-(4-fluorophenyl)-N-(4-methyl-3-(morpholinosulfonyl)phenyl)-3-p-tolyl-1H-pyrarazole-4-carboxamide] | 24.3 ± 0.6 nM | 18.5 ± 1.0% | 72 ± 2.2% | 2490 ± 6 nM | inhibition at 0.493 µM [1, 5]: 95 ± 1.2%
2 | Cc1ccc(-c2nn(-c3cccc(C(F)(F)F)c3)cc2C(=O)Nc2ccc(C)c(S(=O)(=O)N3CCOCC3)c2)cc1 [Compound 4d, N-(4-Methyl-3-(morpholinosulfonyl)phenyl)-3-(p-tolyl)-1-(3-(trifluoromethyl)phenyl)-1H-pyrazole-4-carboxamide] | 23.9 ± 2.1 nM | 7.3 ± 0.2% | 54.8 ± 1.3% | 22300 ± 1140 nM | inhibition at 0.164 µM [1, 5]: 77.5 ± 4.3%
3 | Cc1ccc(-c2nn(-c3nc4ccccc4s3)cc2C(=O)Nc2ccc(C)c(S(=O)(=O)N3CCOCC3)c2)cc1 [Compound 4e, 1-(Benzo[d]thiazol-2-yl)-N-(4-methyl-3-(morpholinosulfonyl)phenyl)-3-(p-tolyl)-1H-pyrazole-4-carboxamide] | 17.7 ± 0.4 nM | – | 79.1 ± 2.4% | 7910 ± 1160 nM | inhibition at 0.164 µM [1, 5]: 102 ± 2.8%; fold improvement of activity compared to Z26476908 ([1]; text says FXR antagonistic activity / potency in hFXR, figures fit TR-FRET IC50): 3 fold; GB FXR Cell Cyto % Inh. ([2]; 13.3 μM): 11.5 ± 0.2 (13.3 μM) %
4 | CCCCn1cc(C(=O)Nc2ccc(C)c(S(=O)(=O)N3CCOCC3)c2)c(-c2ccc(C)cc2)n1 [Compound 4g, 1-Butyl-N-(4-methyl-3-(morpholinosulfonyl)phenyl)-3-(p-tolyl)-1H-pyrazole-4-carboxamide] | 52.5 ± 4.1 nM | – | – | 11510 ± 70 nM | inhibition at 1.5 µM ([1]; at 1.5 μM, read-out: FXR TR-FRET Binding % Inh.): 130.1 ± 0.7%; GB FXR Cell Cyto % Inh. ([2]; 4.4 μM): 10.3 ± 0.3%; FXR antagonistic activity, SAR statement in words [3]: retention of the antagonistic activity; inhibition at 20 µM [3]: 97.9 ± 8.1%
5 | Cc1ccc(-c2nn(Cc3ccc4ccccc4c3)cc2C(=O)Nc2ccc(C)c(S(=O)(=O)N3CCOCC3)c2)cc1 [Compound 4h, N-(4-Methyl-3-(morpholinosulfonyl)phenyl)-1-(naphthalen-2-ylmethyl)-3-(p-tolyl)-1H-pyrazole-4-carboxamide] | 10.2 ± 1.6 nM | – | 84.4 ± 4.1% | 844 ± 10.3 nM | inhibition at 0.164 µM [1, 5]: 97.8 ± 1.2%; GB FXR Cell Cyto % Inh. ([2]; 4.4 μM): 7.9 ± 0.3 (4.4 μM) %; FXR antagonistic activity, SAR statement in words [3]: enhanced antagonistic activity
6 | Cc1ccc(-c2nn(CCCCO)cc2C(=O)Nc2ccc(C)c(S(=O)(=O)N3CCOCC3)c2)cc1 [Compound 4l, 1-(4-Hydroxybutyl)-N-(4-methyl-3-(morpholinosulfonyl)phenyl)-3-(p-tolyl)-1H-pyrazole-4-carboxamide] | 130 ± 16 nM | 5.9 ± 0.2% | 97.6 ± 3.7% | 2610 ± 290 nM | inhibition at 0.493 µM [1, 5]: 89.3 ± 0.1%
7 | COc1cccc(-c2nn(C(C)C)cc2C(=O)Nc2ccc(C)c(S(=O)(=O)N3CCOCC3)c2)c1 [Compound 4n, 1-Isopropyl-3-(3-methoxyphenyl)-N-(4-methyl-3-(morpholinosulfonyl)phenyl)-1H-pyrazole-4-carboxamide] | 160 ± 22.6 nM | – | 97.8 ± 1.5% | 3490 ± 640 nM | inhibition at 13.3 µM [1, 5]: 150 ± 6.9%; GB FXR Cell Cyto % Inh. ([2]; 4.4 μM): 10.8 ± 0.2%
8 | Cc1ccc(NC(=O)c2cn(C(C)C)nc2-c2ccc(C(F)(F)F)cc2)cc1S(=O)(=O)N1CCOCC1 [Compound 4p, 1-Isopropyl-N-(4-methyl-3-(morpholinosulfonyl)phenyl)-3-(4-(trifluoromethyl)phenyl)-1H-pyrazole-4-carboxamide] | 77.5 ± 3.7 nM | 19.5 ± 1.1% | 100 ± 3.7% | 1950 ± 280 nM | inhibition at 4.4 µM [1, 5]: 133 ± 5.3%
9 | CC(C)c1onc(-c2c(Cl)cccc2Cl)c1COc1ccc(/C=C/c2cccc(C(=O)O)c2)c(Cl)c1 [GW4064] | – | – | – | – | GB FXR Cell Cyto % Inh. [4]: NT (NT: Not toxic (toxicity less than 5%))
10 | C[C@H](CCC(=O)O)[C@H]1CC[C@H]2[C@@H]3CC[C@@H]4C[C@H](O)CC[C@]4(C)[C@H]3CC[C@]12C [Lithocholic Acid, lithocholic acid] | – | – | – | – | GB FXR Cell Cyto % Inh. [4]: NT (NT: Not toxic (toxicity less than 5%))

The next lines start with results.

Row | IC50 [1] | GB FXR Cell Cyto % Inh. ([2]; 40 μM) | inhibition at 40 µM [3] | IC50 [3] | SMILES | further results
11 | 489 ± 21.2 nM | 15.0 ± 0.7% | 86.4 ± 2.8% | 16200 nM | Cc1ccc(-c2nn(C(C)C)cc2C(=O)N(C)c2ccc(C)c(S(=O)(=O)N3CCOCC3)c2)cc1 [Compound 8-1, 1-Isopropyl-N-methyl-N-(4-methyl-3-(morpholinosulfonyl)phenyl)-3-(p-tolyl)-1H-pyrazole-4-carboxamide] | inhibition at 40 µM [1, 5]: 133 ± 6.2%; activity against FXR at 1 μM [3]: weak activity
12 | 5330 ± 240 nM | 13.5 ± 0.4 (40 μM) % | – | – | COc1cccc(Cn2cc(C(=O)N(C)c3ccc(C)c(S(=O)(=O)N4CCOCC4)c3)c(C(C)C)n2)c1 [Compound 8-2, 3-Isopropyl-1-(3-methoxybenzyl)-N-methyl-N-(4-methyl-3-(morpholinosulfonyl)phenyl)-1H-pyrazole-4-carboxamide] | inhibition at 40 µM [1, 5]: 80.3 ± 5.2%; activity against FXR at 1 μM [3]: weak activity; inhibition at 20 µM [3]: 2.4 ± 0.1%
13 | 3810 ± 200 nM | 19.7 ± 0.4 (40 μM) % | 23.8 ± 0.4% | – | COc1cccc(Cn2cc(C(=O)N(C)c3ccc(C)c(S(=O)(=O)N4CCOCC4)c3)c(-c3cccc(OC)c3)n2)c1 [Compound 8-3, 1-(3-Methoxybenzyl)-3-(3-methoxyphenyl)-N-methyl-N-(4-methyl-3-(morpholinosulfonyl)phenyl)-1H-pyrazole-4-carboxamide] | inhibition at 40 µM [1, 5]: 69.7 ± 3.5%; activity against FXR at 1 μM [3]: weak activity
14 | 2040 ± 20 nM | 10.5 ± 0.3% | 36.8 ± 0.3% | – | Cc1ccc(-c2nn(C(C)C)cc2CNc2ccc(C)c(S(=O)(=O)N3CCOCC3)c2)cc1 [Compound 9-1, N-((1-Isopropyl-3-(p-tolyl)-1H-pyrazol-4-yl)methyl)-4-methyl-3-(morpholinosulfonyl)aniline] | inhibition at 13.3 µM [1, 5]: 99.5 ± 2.6%
15 | 2310 ± 320 nM | 13.9 ± 0.6 (40 μM) % | 64.8 ± 1.9% | 27800 ± 1540 nM | COc1cccc(Cn2cc(CNc3ccc(C)c(S(=O)(=O)N4CCOCC4)c3)c(C(C)C)n2)c1 [Compound 9-2, N-((3-Isopropyl-1-(3-methoxybenzyl)-1H-pyrazol-4-yl)methyl)-4-methyl-3-(morpholinosulfonyl)aniline] | inhibition at 4.4 µM [1, 5]: 72.5 ± 2.7%
16 | – | – | 3.1 ± 0.1% | – | COc1cccc(Cn2cc(CNc3ccc(C)c(S(=O)(=O)N4CCOCC4)c3)c(-c3cccc(OC)c3)n2)c1 [Compound 9-3, N-((1-(3-Methoxybenzyl)-3-(3-methoxyphenyl)-1H-pyrazol-4-yl)methyl)-4-methyl-3-(morpholinosulfonyl)aniline] | inhibition at 1.48 µM ([1]; at 1.48 μM, read-out: FXR TR-FRET Binding % Inh.): 39.8 ± 1.8%
17 | 47 ± 5.1 nM | 17.9 ± 0.5% | 77.2 ± 2.2% | 2620 nM | Cc1ccc(-c2nn(-c3ccccc3)cc2C(=O)Nc2ccc(C)c(S(=O)(=O)N3CCOCC3)c2)cc1 [Compound Z26476908, reference compound] | inhibition at 0.164 µM [1, 5]: 100 ± 5.2%
